The record followed here is ChEMBL document CHEMBL1201862, “PubChem BioAssay data set” (2004).

Test systems include TK-10; SF-295; K562; CAKI-1; MOLT-4; HCC 2998; M14; UACC-257; NCI-H23; SK-MEL-2; SNB-19; NCI/ADR-RES; MDA-N; DU-145; SF-539; A498; Hs-578T; SNB-75; COLO 205; KM12.
Test in all cases: inhibition of tumour cell growth, NCI panel, 48 h

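Assay format: 96-well plates, 48-hour exposure. GI50 = concentration required for 50% inhibition of growth.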 The source made the active and inactive calls. Cut-off read from the data, not from the text of the source: active = GI50 up to about 1.1 µM and inactive = higher.

As for `CCC1=C(c2ccc(OC)cc2)CC[C@]2(CCNC2=O)[C@@H]1C`, the GI50 in the experiment on TK-10 was 35 µM (inactive); in the experiment with SF-295, 30 µM (inactive); with K562 it was 21.5 µM (inactive); in the experiment on CAKI-1 it was 48.3 µM (inactive); in the experiment with MOLT-4, 15.8 µM (inactive); with HCC 2998 it was 28.4 µM (inactive). For the same molecule, the GI50 with M14 was 26.4 µM (inactive); in the experiment with UACC-257, 23.7 µM (inactive); with NCI-H23 it was 37.4 µM (inactive); in the experiment with SK-MEL-2, 21.3 µM (inactive); in the experiment with SNB-19, 34.6 µM (inactive); with NCI/ADR-RES, 31.2 µM (inactive). The GI50 in the experiment with MDA-N was 22.5 µM (inactive); in the experiment with DU-145 it was 33.3 µM (inactive); with SF-539, 28.2 µM (inactive); with A498, 31.3 µM (inactive); in the experiment with Hs-578T, 24.5 µM (inactive); in the experiment with SNB-75 it was 27.4 µM (inactive). The GI50 is 14.4 µM (inactive) in the experiment with COLO 205 and 32 µM (inactive) in the experiment with KM12.
For `COc1ccc(/C(CC2OC(=O)c3ccccc32)=N\NC(=O)C[N+](C)(C)C)cc1` (stereo not given), the GI50 in the experiment on TK-10 is 33.4 µM (inactive); with SF-295, 47.5 µM (inactive); in the experiment with K562, 19.2 µM (inactive); in the experiment on CAKI-1 it was 40.3 µM (inactive); with MOLT-4, 23.7 µM (inactive); in the experiment on HCC 2998, 16.3 µM (inactive). The GI50 was 38 µM (inactive) in the experiment on M14; 31.3 µM (inactive) with UACC-257; 17.5 µM (inactive) in the experiment on NCI-H23; 23.9 µM (inactive) in the experiment with SK-MEL-2; 29.5 µM (inactive) with SNB-19; 21.2 µM (inactive) in the experiment on NCI/ADR-RES. The GI50 in the experiment with MDA-N was 38.2 µM (inactive); with DU-145, 20.5 µM (inactive); in the experiment on SF-539, 31.2 µM (inactive); in the experiment on A498 it was 24.3 µM (inactive); in the experiment with Hs-578T it was 36.7 µM (inactive); in the experiment on SNB-75, 27.7 µM (inactive). The GI50 is 27.5 µM (inactive) in the experiment on COLO 205 and 21.2 µM (inactive) with KM12.
As for `CC(Oc1ccccc1)C(=O)NNC(=O)OC(C)(C)C` (stereo not given), the GI50 in the experiment on TK-10, in the experiment on SF-295, in the experiment with K562, with CAKI-1, with MOLT-4 and with HCC 2998 was > 100 µM (inactive) throughout. Besides, the GI50 in the experiment on M14, with UACC-257, with NCI-H23, with SK-MEL-2, with SNB-19 and with NCI/ADR-RES was > 100 µM (inactive) each time. The GI50 in the experiment on MDA-N, in the experiment with DU-145, in the experiment on SF-539, in the experiment with A498, in the experiment with Hs-578T and in the experiment on SNB-75 was > 100 µM (inactive) each time. Besides, the GI50 with COLO 205 and with KM12 was > 100 µM (inactive) throughout.
In the case of `O=C1C=CC[C@H](/C=C/C[C@@H](O)C[C@H](O)/C=C/c2ccccc2)O1`, the GI50 in the experiment with TK-10 was 11.7 µM (inactive); in the experiment on SF-295 it was 15.7 µM (inactive); with K562, 10.9 µM (inactive); in the experiment on CAKI-1, 6.4 µM (inactive); in the experiment with MOLT-4, 14 µM (inactive); with HCC 2998, 2.28 µM (inactive). Also, the GI50 is 14.4 µM (inactive) in the experiment on M14; 13.9 µM (inactive) in the experiment with UACC-257; 11.3 µM (inactive) with NCI-H23; 12.3 µM (inactive) in the experiment with SK-MEL-2; 19.2 µM (inactive) in the experiment with SNB-19; 19.1 µM (inactive) in the experiment on NCI/ADR-RES. Moreover, the GI50 with MDA-N is 12.4 µM (inactive); in the experiment on DU-145, 13.3 µM (inactive); in the experiment on SF-539, 9.89 µM (inactive); in the experiment on A498, 14.1 µM (inactive); in the experiment on Hs-578T it was 19.3 µM (inactive); in the experiment on SNB-75 it was 13.6 µM (inactive). In addition, the GI50 in the experiment on COLO 205 is 7.87 µM (inactive); in the experiment on KM12, 12.3 µM (inactive).
With `O=C1c2ccccc2S(=O)(=O)c2ccccc21`, the GI50 in the experiment on TK-10, in the experiment on SF-295, with K562, in the experiment with CAKI-1, in the experiment with MOLT-4 and with HCC 2998 was > 100 µM (inactive) each time. The GI50 in the experiment with M14, with UACC-257, in the experiment on NCI-H23, in the experiment with SK-MEL-2, in the experiment with SNB-19 and in the experiment with NCI/ADR-RES was > 100 µM (inactive) in each case. In addition, the GI50 in the experiment with MDA-N was > 100 µM (inactive); in the experiment with DU-145 it was > 100 µM (inactive); with SF-539, > 100 µM (inactive); with A498, > 100 µM (inactive); in the experiment on Hs-578T it was 72.1 µM (inactive); in the experiment with SNB-75 it was > 100 µM (inactive). The GI50 with COLO 205 and in the experiment with KM12 was > 100 µM (inactive) throughout.
`CN(C)CCNc1ccc2c(=O)n(CCN(C)C)c(=O)n3c4ccccc4c(=O)c1c23`: the GI50 in the experiment with TK-10 was 0.392 µM (active); in the experiment on SF-295, < 0.0243 µM (active); with K562, 0.0133 µM (active); in the experiment with CAKI-1, 0.0133 µM (active); in the experiment on MOLT-4 it was < 0.01 µM (active); in the experiment with HCC 2998 it was < 0.0164 µM (active). In addition, the GI50 in the experiment with M14 is 0.0836 µM (active); in the experiment with UACC-257 it was 0.34 µM (active); in the experiment with NCI-H23, 0.0505 µM (active); with SK-MEL-2, 0.399 µM (active); in the experiment on SNB-19, 0.137 µM (active); with NCI/ADR-RES, 0.14 µM (active). The GI50 was 0.133 µM (active) in the experiment on MDA-N; 0.0197 µM (active) in the experiment with DU-145; 0.0321 µM (active) with SF-539; 0.157 µM (active) with A498; 0.305 µM (active) in the experiment with Hs-578T; 0.0513 µM (active) with SNB-75. Also, the GI50 in the experiment with COLO 205 is 0.17 µM (active); in the experiment on KM12 it was 0.116 µM (active).
With `Cc1c(C#N)c2nnn(-c3ccc(Cl)cc3)c(=O)n2c1-c1ccccc1`, the GI50 with TK-10 was 0.476 µM (active); in the experiment with SF-295 it was 0.0531 µM (active); with K562 it was 0.0586 µM (active); with CAKI-1, 0.251 µM (active); in the experiment with MOLT-4 it was 0.063 µM (active); in the experiment with HCC 2998, 0.0713 µM (active). For the same molecule, the GI50 was 0.0608 µM (active) in the experiment with M14; 3.15 µM (inactive) in the experiment with UACC-257; 0.167 µM (active) in the experiment on NCI-H23; 0.0746 µM (active) in the experiment with SK-MEL-2; 0.195 µM (active) in the experiment on SNB-19; 0.0693 µM (active) in the experiment on NCI/ADR-RES. The GI50 in the experiment on MDA-N is 0.0173 µM (active); with DU-145 it was 0.0895 µM (active); with SF-539, 0.0492 µM (active); with A498 it was 0.124 µM (active); in the experiment with Hs-578T, 0.158 µM (active); in the experiment with SNB-75 it was 0.275 µM (active). For the same molecule, the values for the GI50 in the experiment on COLO 205 and with KM12 were 0.0357 µM (active) and 0.051 µM (active), respectively.
As for `CCOC(=O)C1(C/C=C\CBr)CCCCCCCCCCC1=O` (stereo not given), the GI50 was 8.69 µM (inactive) in the experiment on TK-10; 16.9 µM (inactive) in the experiment with SF-295; 3.95 µM (inactive) in the experiment on K562; 13.9 µM (inactive) with CAKI-1; 3.56 µM (inactive) in the experiment with MOLT-4; 16 µM (inactive) in the experiment with HCC 2998. Besides, the GI50 in the experiment with M14 was 15.7 µM (inactive); in the experiment on UACC-257 it was 15.2 µM (inactive); in the experiment on NCI-H23 it was 11.9 µM (inactive); in the experiment with SK-MEL-2 it was 15.3 µM (inactive); in the experiment on SNB-19, 14.3 µM (inactive); in the experiment on NCI/ADR-RES it was 16.7 µM (inactive). The GI50 in the experiment with MDA-N was 11.9 µM (inactive); in the experiment on DU-145 it was 17.1 µM (inactive); in the experiment with SF-539 it was 3.43 µM (inactive); with A498, 13.9 µM (inactive); with Hs-578T, 20 µM (inactive); in the experiment on SNB-75, 12.4 µM (inactive). Besides, the GI50 in the experiment with COLO 205 is 17.5 µM (inactive); in the experiment on KM12, 13.2 µM (inactive).
Take `N#CCc1nc(Cc2ccccc2)n[nH]1`: the GI50 with TK-10, with SF-295, in the experiment with K562, in the experiment on CAKI-1, in the experiment with MOLT-4 and with HCC 2998 was > 100 µM (inactive) in each case. Further, the GI50 in the experiment with M14, in the experiment with UACC-257, in the experiment with NCI-H23, in the experiment on SK-MEL-2, in the experiment with SNB-19 and in the experiment on NCI/ADR-RES was > 100 µM (inactive) throughout. The GI50 in the experiment with MDA-N, with DU-145, in the experiment with SF-539, in the experiment on A498, with Hs-578T and in the experiment with SNB-75 was > 100 µM (inactive) in each case. Besides, the GI50 with COLO 205 and in the experiment on KM12 was > 100 µM (inactive) each time.
For `COc1ccc(/C=C2\CCCC(CN(C)C)C2=O)cc1` (stereo not given), the GI50 in the experiment with TK-10 was 3.36 µM (inactive); with SF-295, 19.1 µM (inactive); with K562 it was 1.24 µM (inactive); in the experiment on CAKI-1, 1.69 µM (inactive); in the experiment with MOLT-4, 0.774 µM (active); with HCC 2998 it was 6.71 µM (inactive). For the same molecule, the GI50 in the experiment on M14 is 1.72 µM (inactive); in the experiment with UACC-257 it was 3.26 µM (inactive); in the experiment on NCI-H23, 7.71 µM (inactive); in the experiment with SK-MEL-2 it was 3.36 µM (inactive); in the experiment on SNB-19, 7.36 µM (inactive); with NCI/ADR-RES, 2.63 µM (inactive). Moreover, the GI50 in the experiment with MDA-N was 2.96 µM (inactive); in the experiment on DU-145, 16.6 µM (inactive); in the experiment on SF-539 it was 14.9 µM (inactive); with A498, 16.8 µM (inactive); with Hs-578T, 3.02 µM (inactive); in the experiment with SNB-75, 7.45 µM (inactive). In addition, the GI50 with COLO 205 was 2.1 µM (inactive); in the experiment on KM12, 1.3 µM (inactive).
